The values below come from PubChem BioAssay (NCI).

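Each compound was tested at five concentrations against cells in 96-well plates for 48 hours. GI50 = concentration required for 50% inhibition of growth. TGI denotes the concentration required for complete inhibition of growth.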

Some test systems named below: CCRF-CEM leukemia; M14 melanoma; NCI-H23 lung; OVCAR-3 ovarian; OVCAR-4 ovarian; OVCAR-8 ovarian; PC-3 prostate; RPMI-8226 leukemia; SNB-19 CNS; UACC-257 melanoma.
Holding throughout (assay): DTP human tumour cell line panel, 48 h

For `COc1cc2c(/C=C3\C(=O)N(C)c4ccccc43)c[nH]c2cc1C`, the GI50 with CCRF-CEM leukemia was 957 nM; in the experiment with M14 melanoma, 541 nM; in the experiment with NCI-H23 lung, 5.33 µM; in the experiment with OVCAR-3 ovarian, 3.27 µM; in the experiment with OVCAR-4 ovarian, above 100 µM; with OVCAR-8 ovarian it was 4.14 µM. Further, the GI50 was 2.56 µM in the experiment with PC-3 prostate, 1420 nM in the experiment on RPMI-8226 leukemia, 4.15 µM in the experiment with SNB-19 CNS and 23.5 µM with UACC-257 melanoma. The TGI with CCRF-CEM leukemia was 18.8 µM; in the experiment on M14 melanoma, above 100 µM; in the experiment on NCI-H23 lung, above 67.9 µM; with OVCAR-3 ovarian it was 9.78 µM; with OVCAR-4 ovarian, above 100 µM; in the experiment with OVCAR-8 ovarian it was 45.1 µM. In addition, the TGI is above 100 µM in the experiment with PC-3 prostate, above 20.1 µM with RPMI-8226 leukemia, above 100 µM with SNB-19 CNS and above 100 µM in the experiment with UACC-257 melanoma.
On to `Nc1nc(Sc2ccc([N+](=O)[O-])c3nonc23)c2ncn(C3OC(CO)C(O)C3O)c2n1` (centres undefined), for which the GI50 with CCRF-CEM leukemia is 198 nM; in the experiment on M14 melanoma, 456 nM; in the experiment with NCI-H23 lung, 1.34 µM; in the experiment on OVCAR-3 ovarian, 2.17 µM; with OVCAR-4 ovarian, 1.89 µM; in the experiment with OVCAR-8 ovarian, 0.794 µM. Further, the GI50 in the experiment with PC-3 prostate is 3.24 µM; in the experiment with RPMI-8226 leukemia, 278 nM; in the experiment on SNB-19 CNS it was above 63.5 µM. The TGI in the experiment on CCRF-CEM leukemia was 6.65 µM; with M14 melanoma it was 8.15 µM; in the experiment on NCI-H23 lung, 13.9 µM; with OVCAR-3 ovarian it was 24.6 µM; in the experiment with OVCAR-4 ovarian, 17.8 µM; with OVCAR-8 ovarian, above 46 µM. The TGI in the experiment with PC-3 prostate was 26.6 µM; in the experiment on RPMI-8226 leukemia, 15.2 µM; in the experiment with SNB-19 CNS, above 100 µM; in the experiment with UACC-257 melanoma it was above 44.8 µM.
As for `COc1cc2c3c(n(CCCN=[N+]=[N-])c(=O)c2cc1OC)-c1ccc(F)cc1C3=O`, the GI50 in the experiment with CCRF-CEM leukemia is 1990 nM; with M14 melanoma it was 5160 nM; in the experiment on NCI-H23 lung it was 14.1 µM; in the experiment with OVCAR-3 ovarian, 6.11 µM; with OVCAR-4 ovarian, 55.9 µM; with OVCAR-8 ovarian it was 21.2 µM. Besides, the GI50 was 6.63 µM in the experiment on PC-3 prostate, 1700 nM with RPMI-8226 leukemia, 4.35 µM in the experiment on SNB-19 CNS and above 100 µM in the experiment with UACC-257 melanoma. The TGI is 5.79 µM in the experiment with CCRF-CEM leukemia; above 100 µM in the experiment with M14 melanoma; above 100 µM with NCI-H23 lung; above 100 µM in the experiment on OVCAR-3 ovarian; above 100 µM with OVCAR-4 ovarian; above 100 µM with OVCAR-8 ovarian. For the same molecule, the TGI in the experiment with PC-3 prostate was above 100 µM; in the experiment with RPMI-8226 leukemia, 10.8 µM; with SNB-19 CNS, above 100 µM; in the experiment on UACC-257 melanoma, above 100 µM.
Turning to `OCc1ccc(-c2nc(-c3ccc4c(c3)OCO4)c(-c3ccccn3)[nH]2)cc1`, the GI50 with CCRF-CEM leukemia was above 25000 nM; in the experiment with M14 melanoma, above 25000 nM; in the experiment on NCI-H23 lung, above 25 µM; in the experiment with OVCAR-3 ovarian, above 25 µM; in the experiment with OVCAR-4 ovarian it was above 25 µM; in the experiment with OVCAR-8 ovarian it was above 25 µM. In addition, the GI50 with PC-3 prostate was above 25 µM; in the experiment with RPMI-8226 leukemia, 15900 nM; in the experiment with SNB-19 CNS, above 25 µM; with UACC-257 melanoma it was above 25 µM. Further, the TGI with CCRF-CEM leukemia, in the experiment on M14 melanoma, in the experiment with NCI-H23 lung, in the experiment on OVCAR-3 ovarian, in the experiment on OVCAR-4 ovarian and in the experiment on OVCAR-8 ovarian was above 25 µM each time. Moreover, the TGI with PC-3 prostate, in the experiment with RPMI-8226 leukemia, with SNB-19 CNS and in the experiment on UACC-257 melanoma was above 25 µM throughout.
Consider `Clc1cc(Br)ccc1-c1ccc(CNCC2CCNCC2)o1`, for which the GI50 in the experiment on CCRF-CEM leukemia was 1580 nM; with M14 melanoma it was 1850 nM; in the experiment with NCI-H23 lung, 3.43 µM; in the experiment with OVCAR-3 ovarian, 1.75 µM; in the experiment with OVCAR-4 ovarian it was 1.86 µM; with OVCAR-8 ovarian, 2.19 µM. The GI50 in the experiment on PC-3 prostate is 1.64 µM; in the experiment with RPMI-8226 leukemia it was 1860 nM; in the experiment on SNB-19 CNS, 2.3 µM; in the experiment with UACC-257 melanoma, 1.85 µM. For the same molecule, the TGI in the experiment on CCRF-CEM leukemia is 3.54 µM; with M14 melanoma, 3.7 µM; in the experiment with NCI-H23 lung, 13.6 µM; in the experiment on OVCAR-3 ovarian, 3.27 µM; in the experiment on OVCAR-4 ovarian, 4.49 µM; in the experiment with OVCAR-8 ovarian, 5.15 µM. For the same molecule, the TGI was found to be 3.3 µM with PC-3 prostate, 4.46 µM with RPMI-8226 leukemia, 7.2 µM with SNB-19 CNS and 3.51 µM in the experiment on UACC-257 melanoma.
In the case of `CCOC(=O)c1ccc(N2NC(=O)/C(=C/c3ccc([N+](=O)[O-])o3)C2=O)cc1`, the GI50 with CCRF-CEM leukemia is 2000 nM; with M14 melanoma, 17000 nM; in the experiment on NCI-H23 lung, 21 µM; with OVCAR-3 ovarian, 6.82 µM; in the experiment with OVCAR-4 ovarian it was 17 µM; in the experiment with OVCAR-8 ovarian, 27.8 µM. In addition, the GI50 with PC-3 prostate is 21.3 µM; in the experiment on RPMI-8226 leukemia, 30100 nM; with SNB-19 CNS it was above 44.8 µM; in the experiment on UACC-257 melanoma it was 16 µM. Further, the TGI in the experiment on CCRF-CEM leukemia was above 61.6 µM; in the experiment with M14 melanoma, 31.6 µM; in the experiment with NCI-H23 lung, 52.6 µM; with OVCAR-3 ovarian, 17.1 µM; in the experiment with OVCAR-4 ovarian, 30.9 µM; with OVCAR-8 ovarian, above 64.2 µM. Further, the TGI in the experiment with PC-3 prostate was 55.8 µM; with RPMI-8226 leukemia it was above 96.5 µM; with SNB-19 CNS, above 72.2 µM; with UACC-257 melanoma, 30.8 µM.

As a reminder, the GI50 is the concentration at which growth is held to half of that of the control. As usually defined, the TGI is the concentration giving total growth inhibition. Low readings indicate greater sensitivity of the cells, high ones lower sensitivity of the cells.
